Data published in paper PMC7914897, “Cytotoxic Potential of a-Azepano- and 3-Amino-3,4-SeCo-Triterpenoids” (International Journal of Molecular Sciences, 2021).

How the values were obtained:
[1] = system: A2780 (ovarian carcinoma); assay: SRB cytotoxicity assay, 72 h; type: cell-based, human; conditions: Homo sapiens; A2780, 72 h, cut-off 30 µM; read-out: EC50
Summary of the method: (§1)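 Absorbance at 570 nm of SRB-stained cells gives % survival vs untreated controls, from which EC50 is determined. Treatment: 0–30 µM serial dilutions, 72 h, beginning 24 h post-seeding; DMSO ≤0.5%. TCA (10%) fixation, acetic acid wash.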

[2] = system: A375 (malignant melanoma); assay: SRB cytotoxicity assay, 72 h; type: cell-based, human; conditions: Homo sapiens, A-375, 72 h, A375, 72 h, cut-off 30 µM; read-out: EC50
Summary of the method: as §1

[3] = system: FaDu (hypopharyngeal carcinoma); assay: SRB cytotoxicity assay, 72 h; type: cell-based, human; conditions: Homo sapiens, cut-off 30 µM, read-out: EC50
Summary of the method: as §1

[4] = system: HT29 (colorectal carcinoma); assay: SRB cytotoxicity assay, 72 h; type: cell-based, human; conditions: Homo sapiens, HT-29; HT29, 72 h, cut-off 30 µM; read-out: EC50
Summary of the method: as §1

[5] = system: MCF-7 (breast carcinoma); assay: SRB cytotoxicity assay, 72 h; type: cell-based, human; conditions: Homo sapiens, MCF7; MCF-7, 72 h, cut-off 30 µM; read-out: EC50
Summary of the method: as §1

[6] = system: NIH 3T3 (non-malignant mouse fibroblasts); assay: SRB cytotoxicity assay, 72 h; type: cell-based; conditions: Mus musculus, NIH3T3; NIH 3T3, 72 h, cut-off 30 µM; read-out: EC50
Summary of the method: as §1

[7] = system: Leukemia subpanel; assay: cells; conditions: Homo sapiens
[8] = system: MDA-MB-468 (Breast cancer); assay: cells; conditions: Homo sapiens
[9] = system: Colon Cancer subpanel; assay: NCI-60 screen, subpanel; conditions: Homo sapiens
[10] = system: CCRF-CEM (Leukemia); assay: NCI-60 screen (SRB, 48 h); conditions: Homo sapiens
[11] = system: MOLT-4 (Leukemia); assay: NCI-60 screen (SRB, 48 h); conditions: Homo sapiens
[12] = system: A549/ATCC (NSC lung cancer); assay: NCI-60 screen (SRB, 48 h); conditions: Homo sapiens
[13] = system: HOP-92 (NSC lung cancer); assay: NCI-60 screen (SRB, 48 h); conditions: Homo sapiens
[14] = system: NCI-H23 (NSC lung cancer); assay: NCI-60 screen (SRB, 48 h); conditions: Homo sapiens
[15] = system: HCT-116 (Colon cancer); assay: NCI-60 screen (SRB, 48 h); conditions: Homo sapiens
[16] = system: HCT-15 (Colon cancer); assay: NCI-60 screen (SRB, 48 h); conditions: Homo sapiens
[17] = system: SF-295 (CNS cancer); assay: NCI-60 screen (SRB, 48 h); conditions: Homo sapiens
[18] = system: SNB-19 (CNS cancer); assay: NCI-60 screen (SRB, 48 h); conditions: Homo sapiens
[19] = system: U251 (CNS cancer); assay: NCI-60 screen (SRB, 48 h); conditions: Homo sapiens
[20] = system: IGROV1 (Ovarian cancer); assay: NCI-60 screen (SRB, 48 h); conditions: Homo sapiens
[21] = system: OVCAR-5 (Ovarian cancer); assay: NCI-60 screen (SRB, 48 h); conditions: Homo sapiens
[22] = system: CAKI-1 (Renal cancer); assay: NCI-60 screen (SRB, 48 h); conditions: Homo sapiens
[23] = system: SN12C (Renal cancer); assay: NCI-60 screen (SRB, 48 h); conditions: Homo sapiens
[24] = system: TK-10 (Renal cancer); assay: NCI-60 screen (SRB, 48 h); conditions: Homo sapiens
[25] = system: MDA-MB-31/ATCC (Breast cancer); assay: NCI-60 screen (SRB, 48 h); conditions: Homo sapiens

For `C=C(C)[C@@H]1CC[C@]2(C)[C@H](CC=C3[C@@H]4[C@@H](C)[C@H](C)CC[C@]4(CO)CC[C@]32C)[C@@]1(C)CCCN` [Compound 19], the EC50 [1] was 3.3 ± 0.2 µM, the EC50 [2] was 2970 ± 200 nM and the EC50 [3] was 2950 ± 400 nM. For the same compound, the EC50 [4] was 1840 ± 200 nM, the EC50 [5] was 2050 ± 200 nM and the EC50 [6] was 4.64 ± 0.6 µM. For the same compound, the IC (TGI) ([7]; 48 h, read-out: TGI MG_MID) was 3.81 µM, the GI50 ([7]; read-out: GI50 MG_MID) was 1230 nM and the CC50 ([7]; read-out: LC50 MG_MID) was 33.2 µM. It also gave a GI50 ([8]; MDA-MB-468) of 820 nM, an IC (TGI) ([8]; MDA-MB-468, 48 h, read-out: TGI) of 1.66 µM and a CC50 ([8]; MDA-MB-468, read-out: LC50) of 3.36 µM. For the same compound, the IC (TGI) ([9]; 48 h, read-out: TGI MG_MID) was 1.8 µM, the GI50 ([9]; read-out: GI50 MG_MID) was 900 nM and the CC50 ([9]; read-out: LC50 MG_MID) was 3.63 µM. For the same compound, the GI50 [10] was 1310 nM, the IC (TGI) ([10]; 48 h, read-out: TGI) was 5.26 µM and the CC50 ([10]; read-out: LC50) was > 50 µM. The GI50 ([11]; MOLT-4) was 1350 nM, the IC (TGI) ([11]; MOLT-4, 48 h, read-out: TGI) was 4.07 µM and the CC50 ([11]; MOLT-4, read-out: LC50) was 27.9 µM. For the same compound, the GI50 ([12]; A549) was 1590 nM, the IC (TGI) ([12]; A549, 48 h, read-out: TGI) was 5.11 µM and the CC50 ([12]; A549, read-out: LC50) was > 50 µM. It also gave a GI50 ([13]; HOP-92) of 1040 nM, an IC (TGI) ([13]; HOP-92, 48 h, read-out: TGI) of 3.46 µM and a CC50 ([13]; HOP-92, read-out: LC50) of 23.1 µM. It also gave a GI50 ([14]; NCI-H23) of 1340 nM, an IC (TGI) ([14]; NCI-H23, 48 h, read-out: TGI) of 4 µM and a CC50 ([14]; NCI-H23, read-out: LC50) of 17.5 µM. For the same compound, the GI50 ([15]; HCT-116) was 810 nM, the IC (TGI) ([15]; HCT-116, 48 h, read-out: TGI) was 1.54 µM and the CC50 ([15]; HCT-116, read-out: LC50) was 2930 nM. It also gave a GI50 ([16]; HCT-15) of 840 nM, an IC (TGI) ([16]; HCT-15, 48 h, read-out: TGI) of 1.76 µM and a CC50 ([16]; HCT-15, read-out: LC50) of 3.69 µM. It also gave a GI50 ([17]; SF-295) of 850 nM, an IC (TGI) ([17]; SF-295, 48 h, read-out: TGI) of 1.58 µM and a CC50 ([17]; SF-295, read-out: LC50) of 2940 nM. For the same compound, the GI50 ([18]; SNB-19) was 2140 nM, the IC (TGI) ([18]; SNB-19, 48 h, read-out: TGI) was 8.11 µM and the CC50 ([18]; SNB-19, read-out: LC50) was 25 µM. For the same compound, the GI50 ([19]; U-251) was 920 nM, the IC (TGI) ([19]; U-251, 48 h, read-out: TGI) was 1.82 µM and the GI50 ([20]; IGROV-1) was 890 nM. The IC (TGI) ([20]; IGROV-1, 48 h, read-out: TGI) was 1.67 µM, the CC50 ([20]; IGROV-1, read-out: LC50) was 3.14 µM and the GI50 ([21]; OVCAR-5) was 1760 nM. It also gave an IC (TGI) ([21]; OVCAR-5, 48 h, read-out: TGI) of 6.15 µM, a CC50 ([21]; OVCAR-5, read-out: LC50) of 20.9 µM and a GI50 ([22]; CAKI-1) of 1690 nM. For the same compound, the IC (TGI) ([22]; CAKI-1, 48 h, read-out: TGI) was 5.58 µM, the CC50 ([22]; CAKI-1, read-out: LC50) was 17.9 µM and the GI50 [23] was 840 nM. The IC (TGI) ([23]; 48 h, read-out: TGI) was 1.67 µM, the CC50 ([23]; read-out: LC50) was 3.34 µM and the GI50 ([24]; TK-10) was 2210 nM. The IC (TGI) ([24]; TK-10, 48 h, read-out: TGI) was 9.75 µM, the CC50 ([24]; TK-10, read-out: LC50) was 24.6 µM and the GI50 [25] was 960 nM. For the same compound, the IC (TGI) ([25]; 48 h, read-out: TGI) was 1.71 µM and the CC50 ([25]; read-out: LC50) was 3.04 µM.
